Patent publication US7732374B2, “Fungicidal mixtures based on prothioconazole and an insecticide” (priority 2002, dated 2010)

Tested on: Sphaerotheca fuliginea
Test: Protective activity against mildew of cucumbers caused by Sphaerotheca fuliginea
Type: in vivo
Settings: inoculated 20 hours after spraying, evaluated after 7 days
Description: Evaluation was carried out by determining the infected leaf areas in percent. These percentages were converted into efficacies. The efficacy (W) was calculated as follows using Abbot's formula:
[formula] • α corresponds to the fungal infection of the treated plants in % and • β corresponds to the fungal infection of the untreated (control) plants in %
An efficacy of 0 means that the infection level of the treated plants corresponds to that of the untreated control plants; an efficacy of 100 means that the treated plants were not infected.
20 hours after the spray coating had dried on, the plants were inoculated with an aqueous spore suspension of mildew of cucumbers (Sphaerotheca fuliginea). The plants were then cultivated in a greenhouse at 20-24° C. and 60-80% relative atmospheric humidity for 7 days. The extent of mildew development was then determined visually in % infection of the cotyledon area.
The visually determined values for the percentage of infected leaf areas were converted into efficacies in % of the untreated control. An efficacy of 0 means the same degree of infection as the untreated control, an efficacy of 100 means 0% infection.

[1] = 0.015 ppm active compound in the spray liquor
[2] = 0.06 ppm active compound in the spray liquor
[3] = 0.25 ppm active compound in the spray liquor
[4] = 1 ppm active compound in the spray liquor

Question: Which “Efficacy in % of the untreated control” value [1] does the source give for N#Cc1nn(-c2c(Cl)cc(C(F)(F)F)cc2Cl)c(N)c1[S+]([O-])C(F)(F)F (stereo not drawn) [Compound II, fipronil] here?
Answer: The value was 0%.

Question: What about the “Efficacy in % of the untreated control” value [2] of the same compound?
Answer: Its value is 0%.

Question: What about the “Efficacy in % of the untreated control” value [3] of the same compound?
Answer: Its value is 0%.

Question: What about the “Efficacy in % of the untreated control” value [4] of the same compound?
Answer: The value was 0%.

Question: CCOP(=S)(OCC)Oc1nc(Cl)c(Cl)cc1Cl [Compound III, chlorpyrifos] was tested. Which “Efficacy in % of the untreated control” value [1] did it give?
Answer: Its value is 0%.

Question: And the “Efficacy in % of the untreated control” value [2]?
Answer: Its value is 0%.

Question: And the “Efficacy in % of the untreated control” value [3]?
Answer: The value was 0%.

Question: For OC(Cc1ccccc1Cl)(Cn1nc[nH]c1=S)C1(Cl)CC1 (stereo not drawn) [Compound I, 2-[2-(1-chlorocyclopropyl)-3-(2-chlorophenyl)-2-hydroxypropyl]-2,4-dihydro-[1,2,4]-triazole-3-thione], which “Efficacy in % of the untreated control” value [1] is on record?
Answer: Its value is 0%.

Question: And the “Efficacy in % of the untreated control” value [2]?
Answer: The value was 0%.

Question: And the “Efficacy in % of the untreated control” value [3]?
Answer: Its value is 5%.

Question: For CN1COCN(Cc2cnc(Cl)s2)/C1=N\[N+](=O)[O-] [Compound IV, thiamethoxam], which “Efficacy in % of the untreated control” value [1] is on record?
Answer: Its value is 0%.

Question: And the “Efficacy in % of the untreated control” value [2]?
Answer: The value was 0%.

Question: And the “Efficacy in % of the untreated control” value [3]?
Answer: The value was 0%.

Question: What about the “Efficacy in % of the untreated control” value [4] of the same compound?
Answer: The value was 0%.

Question: What about the “Efficacy in % of the untreated control” value (4 ppm active compound in the spray liquor) of the same compound?
Answer: The value was 0%.
